# Assay results published in US20260373132A1, “PERK INHIBITORHC-5404 IN COMBINATION WITH ANTI-PD-1 ANTIBODY AND/OR AN ANTIANGIOGENETIC AGENT FOR USE IN THE TREATMENT OF CANCER” (HIBERCELL, INC., priority 2022, published 2026).
# Experiments:
# mouse pancreas = test: pancreas histology (pancreatic toxicity); type: in vivo
# Protocol: As PERK inhibition has been associated with pancreatic toxicity, pancreas sections were evaluated from mice treated with 30 mg/kg or 100 mg/kg HC-5404. […] Together, these findings further supported the decision to dose at 30 mg/kg HC-5404 in subsequent in vivo studies.
# Caki-1 RCC xenograft = Caki-1 RCC xenograft tumor growth; type: in vivo, mouse
# Protocol: Xenograft RCC models were generated as follows: Female NOD.SCID mice (6-8 weeks of age) were injected with A498 RCC cells (5×10^6 cells/mouse), female Balb/c Nude mice (6-8 weeks old) were implanted with 786-O RCC cells (5×10^6 cells/mouse) or Caki-1 RCC cells (6×10^6 cells/mouse), female Athymic Nude-Foxn1nu mice (7-8 weeks of age) were implanted with MFE280 endometrial cells (10×10^6 cells/mouse). Cells were implanted into the flank of animals.
# Once tumor tumors reached volume of typically 150-250 mm^3, animals were randomized by tumor volume into the treatment groups of 8 or 10 animals per group. In the single animal trial with RCC PDX models, only one animal per group was enrolled.
# Body weight and tumor volume were measured twice weekly. Tumor volume was calculated using the formula [tumor volume (mm^3)=π/6×length×width^2] and plotted as means+SEM. The percentage of tumor growth inhibition was calculated at the end of the study using the formula: […], if ΔT>0, ΔT, mean tumor volume of the drug-treated group on the observation day of the study—mean tumor volume of the drug-treated group on initial day of dosing; ΔC, mean tumor volume of the control group on the observation day of the study—mean tumor volume of the control group on initial day of dosing. Regression was calculated using the formula=100×ΔT/Tinitial, if ΔT<0. Animals with >50% regressions were partial responders. Animals with tumor volume of 0 (no measurable tumor) were considered as complete responders, and animals with <50% tumor regression and 30% growth over the baseline were considered as stable disease. Animals with tumors>30% increase over the baseline were considered progressive disease. The % change in body weight was calculated by the formula (body weight on observation day−body weight on initial day)/body weight on initial day×100%.
# [1] = system: 786-O xenografts progressed on axitinib; test: growth of 786-O xenografts that progressed on axitinib; type: in vivo, mouse; details: single agent 30 mg/kg PO BID, 28 days after progression on axitinib (FIG. 40)
# Excerpt: After 14 days of treatments, 77 mice bearing the largest tumors were rerandomized into four PD arms (n=8), four efficacy arms (n=10), and 5 tumors sampled on day of rerandomization as a baseline. The remaining animals were removed from study.
# Despite initial responses to VEGFR-TKI therapy, tumor regrowth necessitates subsequent rounds of alternate therapies to improve patient outcomes.
# [2] = system: myeloid, lymphoid and tumor cells in MB49 model; test: flow cytometry of tumor, lymph node and blood cells in MB49 model; type: in vivo, mouse; details: 10, 30 mg/kg (FIG. 8)
# Protocol: C57BL/6 mice were subcutaneously inoculated with MB49 cells, and treatment started on day 8 post cell inoculation. A group of animals (n=10/group) received either vehicle, HC-5404 (PO, BID) (3 mg/kg, 10 mg/kg, or 30 mg/kg), 5 mg/kg anti-PD-1 antibody (aPD-1) (RMP1-14) (IP, BIW), or the combination of both. At various timepoints, animals were sacrificed, and flow cytometry was performed on blood or single cell suspensions from tumors or lymph nodes (n=6).
# Tumor tissue samples were obtained 7 days post treatment (14 days post inoculation). Single cells were prepared by enzymatic digestion of tumor tissues and subsequently analyzed by flow cytometry on a Cytek Aurora. Expression of IFNAR1 (A) and PD-L1 (B) on the myeloid populations and tumors were shown.
# Surface calreticulin was analyzed by flow cytometry on MB49 tumor cells d7 post treatment.
# Single cell suspensions were washed in PBS twice and then stained with the LIVE/DEAD fixable blue dead cell stain (Invitrogen cat #L23105) at 1:3000 dilution for 30 minutes at 4 °C. […]
# LN cells from day 14 post treatment samples were analyzed by flow cytometry. […]
# Whole blood was collected on the indicated date post treatment in a MB49 model. IFNAR1 expression was determined by flow cytometry and gated on CD14+ monocytes […]
structure (smiles),measurement,setting,value
"Cc1cc(NC(=O)[C@H](O)c2cc(F)cc(F)c2)ccc1-c1cnc(N)c(C(=O)NC(C)C)c1 [HC-5404, (R)-2-amino-5-(4-(2-(3,5-difluorophenyl)-2-hydroxyacetamido)-2-methylphenyl)-N-isopropylnicotinamide]",reversibility of histological pancreas changes,"mouse pancreas; 100 mg/kg PO BID, two-week washout",reversible with a two-week washout period
same,histological changes in the pancreas,"mouse pancreas; 30 or 100 mg/kg PO BID, three weeks",histological changes in the pancreas only in the 100 mg/kg dose
same,effect on growth of Caki-1 model,"Caki-1 RCC xenograft; 10 and 30 mg/kg PO BID tested, 28 days (FIG. 36)",minimal effect
same,sensitivity of Caki-1 to monotherapy,"Caki-1 RCC xenograft; HC-5404 or sunitinib monotherapy, compared with A498 (FIG. 32)",far less sensitive
same,tumor growth inhibition relative to vehicle,[1],47%
same,effect on IFNAR1 on monocytes in peripheral blood,[2],also detected on monocytes in peripheral blood
